Measurements taken from BigSolDB 2.1.

Cc1ccc2ccccc2c1
Conditions | solubility (mole fraction)
in 1,4-dioxane, 278.25 K | 0.468
in 1,4-dioxane, 283.25 K | 0.508
in 1,4-dioxane, 288.35 K | 0.575
in 1,4-dioxane, 293.25 K | 0.65
in 1,4-dioxane, 298.35 K | 0.726
in 1,4-dioxane, 303.25 K | 0.817
in acetone, 278.45 K | 0.218
in acetone, 283.25 K | 0.286
in acetone, 288.35 K | 0.368
in acetone, 293.25 K | 0.484
in acetone, 298.35 K | 0.588
in acetone, 303.25 K | 0.741
in ethanol, 278.25 K | 0.0389
in ethanol, 283.25 K | 0.058
in ethanol, 288.35 K | 0.109
in ethanol, 293.25 K | 0.148
in ethanol, 298.35 K | 0.287
in ethanol, 303.25 K | 0.458
in ethylene glycol, 278.25 K | 0.00742
in ethylene glycol, 283.25 K | 0.00811
in ethylene glycol, 288.35 K | 0.00864
in ethylene glycol, 293.25 K | 0.00963
in ethylene glycol, 298.35 K | 0.0102
in ethylene glycol, 303.25 K | 0.0115
in isopropanol, 278.25 K | 0.0276
in isopropanol, 283.25 K | 0.0508
in isopropanol, 288.35 K | 0.077
in isopropanol, 293.25 K | 0.133
in isopropanol, 298.35 K | 0.233
in isopropanol, 303.25 K | 0.43
in n-butanol, 278.25 K | 0.0596
in n-butanol, 283.25 K | 0.0794
in n-butanol, 288.35 K | 0.13
in n-butanol, 293.25 K | 0.223
in n-butanol, 298.35 K | 0.37
in n-butanol, 303.25 K | 0.68
in n-butyl acetate, 278.15 K | 0.621
in n-butyl acetate, 283.15 K | 0.673
in n-butyl acetate, 288.15 K | 0.729
in n-butyl acetate, 293.15 K | 0.787
in n-butyl acetate, 298.15 K | 0.849
in n-butyl acetate, 303.15 K | 0.951
in n-heptane, 278.15 K | 0.502
in n-heptane, 283.15 K | 0.579
in n-heptane, 288.15 K | 0.65
in n-heptane, 293.15 K | 0.726
in n-heptane, 298.15 K | 0.831
in n-heptane, 303.15 K | 0.906
in n-hexane, 278.95 K | 0.283
in n-hexane, 283.25 K | 0.348
in n-hexane, 288.35 K | 0.443
in n-hexane, 293.25 K | 0.55
in n-hexane, 298.35 K | 0.643
in n-hexane, 303.25 K | 0.811
